Assay results: patent US7812008B2, “9-substituted tetracyclines” (Wyeth LLC, priority 2005, dated 2010)
Converted amounts (≈) assume the structure as drawn. Where two headings read alike, the source gives them in different places.

Key:
[1] = tested on: Staphylococcal aureus Smith M P; test: MIC reported in Table 2 beside the in vivo ED50; assay type: cell-based; conditions: Staphylococcus aureus, infecting strain S. aureus Smith MP
Method: Antimicrobial susceptibility testing. The in vitro activities of representative examples of antibiotics of the invention are determined by the broth microdilution method as recommended by the National Committee for Clinical Laboratory Standards (NCCLS) (1). Mueller-Hinton II broth (MHBII)(BBL Cockeysville, Md.) is the medium employed in the testing procedures. Microtiter plates containing serial dilutions of each antimicrobial agent are inoculated with each organism to yield the appropriate density (10^5 CFU/ml) in a 100 μl final volume. The plates are incubated for 18-22 hours at 35° C. in ambient air. […] NCCLS. 2000. Methods for Dilution Antimicrobial Susceptibility Tests for Bacteria That Grow Aerobically; Approved Standards: M7-A5, vol. 20. National Committe for Clinical Laboratory Standards, Wayne, Pa. In Vivo Antibacterial Evaluation: The therapeutic effects of representative examples of the invention are determined against acute lethal infection with Staphylococcal aureus Smith M P, Female mice, strain CD-1 (Charles River Laboratoties), ca. 20 grams, are challenged by an intraperitoneal injection of sufficient bacteria (suspended in broth or hog mucin) to kill non-treated controls within 24-28 hours. Antibacterial agents, contained in 0.5 ml of 0.2% aqueous agar, are administered subcutaneously or orally 30 minutes after injection. When an oral dosing schedule is used, animal are deprived of food for 5 hours before and 2 hours after injection. Five mice are treated at each dose level. The 7 day survival ratios from 3 separate tests are pooled for calculation of median effective dose (ED50).

E. coli GC2270 (tet(M)) = test: MIC broth microdilution, E. coli GC2270 (tet(M)); assay type: cell-based; conditions: MHBII, 18-22 hours at 35° C.
Method: (§1) Methods for in Vitro Antibacterial Evaluation
(§2) The minimum inhibitory concentration (MIC)
(§3) Antimicrobial susceptibility testing. The in vitro activities of representative examples of antibiotics of the invention are determined by the broth microdilution method as recommended by the National Committee for Clinical Laboratory Standards (NCCLS) (1). Mueller-Hinton II broth (MHBII)(BBL Cockeysville, Md.) is the medium employed in the testing procedures. Microtiter plates containing serial dilutions of each antimicrobial agent are inoculated with each organism to yield the appropriate density (10^5 CFU/ml) in a 100 μl final volume. The plates are incubated for 18-22 hours at 35° C. in ambient air. […] NCCLS. 2000. Methods for Dilution Antimicrobial Susceptibility Tests for Bacteria That Grow Aerobically; Approved Standards: M7-A5, vol. 20. National Committe for Clinical Laboratory Standards, Wayne, Pa.

[2] = tested on: E. coli GC4559 (parent GC4560); test: MIC broth microdilution, E. coli GC4559 (parent GC4560); assay type: cell-based; conditions: MHBII, 18-22 hours at 35° C.
Method: as §1, §2, §3

[3] = tested on: C. albicans GC3066 ATCC (Control); test: MIC broth microdilution, C. albicans GC3066 ATCC (Control); assay type: cell-based; conditions: 18-22 hours at 35° C.
Method: as §1, §2, §3

[4] = tested on: Staphylococcal aureus Smith M P; test: In vivo antibacterial evaluation, acute lethal infection in mice; conditions: Mus musculus, iv, 168 h; single intraveneous dose; female CD-1 mice; 7 day survival ratios, 3 tests pooled; read-out: SIV* ED50
[5] = tested on: S. pyogenes* GC4563 (Clinical); test: MIC broth microdilution, S. pyogenes GC4563 (Clinical); assay type: cell-based; conditions: 18-22 hours at 35° C.
Method: as §1, §2, §3

E. coli GC1073 (tet(B)) = test: MIC broth microdilution, E. coli GC1073 (tet(B)); assay type: cell-based; conditions: MHBII, 18-22 hours at 35° C.
Method: as §1, §2, §3

[6] = tested on: M. catarrhalis* GC6907 (Clinical); test: MIC broth microdilution, M. catarrhalis GC6907 (Clinical); assay type: cell-based; conditions: 18-22 hours at 35° C.
Method: as §1, §2, §3

[7] = tested on: S. aureus GC2216 (ATCC Control); test: MIC broth microdilution, S. aureus GC2216 (ATCC Control); assay type: cell-based; conditions: MHBII, 18-22 hours at 35° C.
Method: as §1, §2, §3

[8] = tested on: E. faecalis GC4555 (ATCC Control); test: MIC broth microdilution, E. faecalis GC4555 (ATCC Control); assay type: cell-based; conditions: MHBII, 18-22 hours at 35° C.
Method: as §1, §2, §3

[9] = tested on: H. influenzae<> GC6896 (ATCC Control); test: MIC broth microdilution, H. influenzae GC6896 (ATCC Control); assay type: cell-based; conditions: 18-22 hours at 35° C.
Method: as §1, §2, §3

[10] = tested on: S. aureus GC1131 (Clinical); test: MIC broth microdilution, S. aureus GC1131 (Clinical); assay type: cell-based; conditions: MHBII, 18-22 hours at 35° C.
Method: as §1, §2, §3

[11] = tested on: S. pneumoniae* GC4465 (Clinical); test: MIC broth microdilution, S. pneumoniae GC4465 (Clinical); assay type: cell-based; conditions: 18-22 hours at 35° C.
Method: as §1, §2, §3

[12] = tested on: S. aureus GC6466 (tet(M)); test: MIC broth microdilution, S. aureus GC6466 (tet(M)); assay type: cell-based; conditions: MHBII, 18-22 hours at 35° C.
Method: as §1, §2, §3

[13] = tested on: S. aureus GC4536 (Smith MP -In Vivo); test: MIC broth microdilution, S. aureus GC4536 (Smith MP -In Vivo); assay type: cell-based; conditions: MHBII, 18-22 hours at 35° C.
Method: as §1, §2, §3

[14] = tested on: S. aureus GC6467 (tet(M) + (K)); test: MIC broth microdilution, S. aureus GC6467 (tet(M) + (K)); assay type: cell-based; conditions: MHBII, 18-22 hours at 35° C.
Method: as §1, §2, §3

[15] = tested on: E. coli GC4560 (IMP mutant); test: MIC broth microdilution, E. coli GC4560 (IMP mutant); assay type: cell-based; conditions: MHBII, 18-22 hours at 35° C.
Method: as §1, §2, §3

[16] = tested on: S. pneumoniae* GC1894 (Clinical); test: MIC broth microdilution, S. pneumoniae GC1894 (Clinical); assay type: cell-based; conditions: 18-22 hours at 35° C.
Method: as §1, §2, §3

[17] = tested on: E. faecalis GC2267 (tet(L) + (M) + (S)); test: MIC broth microdilution, E. faecalis GC2267 (tet(L) + (M) + (S)); assay type: cell-based; conditions: MHBII, 18-22 hours at 35° C.
Method: as §1, §2, §3

[18] = tested on: Staphylococcal aureus Smith M P; test: In vivo antibacterial evaluation, acute lethal infection in mice; conditions: Mus musculus; single oral dose 30 minutes after intraperitoneal challenge; female CD-1 mice; 7 day survival ratios, 3 tests pooled; read-out: SOD* ED50
Method: In Vivo Antibacterial Evaluation: The therapeutic effects of representative examples of the invention are determined against acute lethal infection with Staphylococcal aureus Smith M P, Female mice, strain CD-1 (Charles River Laboratoties), ca. 20 grams, are challenged by an intraperitoneal injection of sufficient bacteria (suspended in broth or hog mucin) to kill non-treated controls within 24-28 hours. Antibacterial agents, contained in 0.5 ml of 0.2% aqueous agar, are administered subcutaneously or orally 30 minutes after injection. When an oral dosing schedule is used, animal are deprived of food for 5 hours before and 2 hours after injection. Five mice are treated at each dose level. The 7 day survival ratios from 3 separate tests are pooled for calculation of median effective dose (ED50).

[19] = tested on: E. coli GC2203 (ATCC Control); test: MIC broth microdilution, E. coli GC2203 (ATCC Control); assay type: cell-based; conditions: MHBII, 18-22 hours at 35° C.
Method: as §1, §2, §3

[20] = tested on: S. aureus GC1079 (tet(K)); test: MIC broth microdilution, S. aureus GC1079 (tet(K)); assay type: cell-based; conditions: MHBII, 18-22 hours at 35° C.
Method: as §1, §2, §3

[21] = tested on: E. faecalis GC2242 (Van-resistant); test: MIC broth microdilution, E. faecalis GC2242 (Van-resistant); assay type: cell-based; conditions: MHBII, 18-22 hours at 35° C.
Method: as §1, §2, §3

CN(C)c1cc(NC(=O)CN2CCCCO2)c(O)c2c1C[C@H]1C[C@H]3[C@H](N(C)C)C(O)=C(C(N)=O)C(=O)[C@@]3(O)C(O)=C1C2=O [Example 8, (4S,4aS,5aR,12aS)-4,7-bis(dimethylamino)-3,10,12,12a-tetrahydroxy-9-[(1,2-oxazinan-2-ylacetyl)amino]-1,11-dioxo-1,4,4a,5,5a,6,11,12a-octahydrotetracene-2-carboxamide]
MIC [1]: 2 µg/mL (≈ 3.34 µM)
minimum inhibitory concentration (MIC) (E. coli GC2270 (tet(M))): >64
minimum inhibitory concentration (MIC) [2]: >64
minimum inhibitory concentration (MIC) [3]: >64
ED50 [4]: 0.56 mg/kg
minimum inhibitory concentration (MIC) [5]: 1
minimum inhibitory concentration (MIC) (E. coli GC1073 (tet(B))): >64
minimum inhibitory concentration (MIC) [6]: 1
minimum inhibitory concentration (MIC) [7]: 2
minimum inhibitory concentration (MIC) [8]: 2
minimum inhibitory concentration (MIC) [9]: 64
minimum inhibitory concentration (MIC) [10]: 4
minimum inhibitory concentration (MIC) [11]: 1
minimum inhibitory concentration (MIC) [12]: 2
minimum inhibitory concentration (MIC) [13]: 2
minimum inhibitory concentration (MIC) [14]: 64
minimum inhibitory concentration (MIC) [15]: 2
minimum inhibitory concentration (MIC) [16]: 0.50
minimum inhibitory concentration (MIC) [17]: 8
ED50 [18]: 3.59 mg/kg
minimum inhibitory concentration (MIC) [19]: >64
minimum inhibitory concentration (MIC) [20]: 16
minimum inhibitory concentration (MIC) [21]: 2

CON(C)CC(=O)Nc1cc(N(C)C)c2c(c1O)C(=O)C1=C(O)[C@]3(O)C(=O)C(C(N)=O)=C(O)[C@@H](N(C)C)[C@@H]3C[C@@H]1C2 [Example 7, (4S,4aS,5aR,12aS)-4,7-bis(dimethylamino)-3,10,12,12a-tetrahydroxy-9-[(N-methoxy-N-methylglycyl)amino]-1,11-dioxo-1,4,4a,5,5a,6,11,12a-octahydrotetracene-2-carboxamide]
MIC [1]: 2 µg/mL (≈ 3.49 µM)
minimum inhibitory concentration (MIC) (E. coli GC2270 (tet(M))): >64
minimum inhibitory concentration (MIC) [2]: >64
minimum inhibitory concentration (MIC) [3]: >64
ED50 [4]: 0.5 to 2 mg/kg
minimum inhibitory concentration (MIC) [5]: 0.25
minimum inhibitory concentration (MIC) (E. coli GC1073 (tet(B))): >64
minimum inhibitory concentration (MIC) [6]: 0.50
minimum inhibitory concentration (MIC) [7]: 2
minimum inhibitory concentration (MIC) [8]: 1
minimum inhibitory concentration (MIC) [9]: 4
minimum inhibitory concentration (MIC) [10]: 4
minimum inhibitory concentration (MIC) [11]: 0.50
minimum inhibitory concentration (MIC) [12]: 2
minimum inhibitory concentration (MIC) [13]: 2
minimum inhibitory concentration (MIC) [14]: >64
minimum inhibitory concentration (MIC) [15]: 1
minimum inhibitory concentration (MIC) [16]: 0.50
minimum inhibitory concentration (MIC) [17]: 8
ED50 [18]: 16 to 32 mg/kg
minimum inhibitory concentration (MIC) [19]: >64
minimum inhibitory concentration (MIC) [20]: 32
minimum inhibitory concentration (MIC) [21]: 2
